Patent US9701690B2, “Myrtocomuloacetalone 1 as an anti-inflammatory agent” (priority 2014, dated 2017)
Converted amounts (≈) assume the structure as drawn. Where two headings read alike, the source gives them in different places.

Legend:
superoxide (O−2) = assay: Oxidative burst, superoxide production; format: cell-based; details: for Oxidative burst % Inhibition O−2: 25 μg/Ml
ROS (HOCl) = assay: Oxidative burst, ROS (HOCl) production (zymosan induced); format: cell-based
T-cells = assay: T-cell proliferation; format: cell-based
Excerpt: T Lymphocytes, the major key detector cells of the adaptive immune responses, differ entirely from those of innate immunity that includes free a radical generation system. However, the effector pathways overlap to a great extent. Therefore, they can play a leading role in the development of autoimmune disease related to oxidative stress.

[1] = test system: 3T3 mouse fibroblast cells; assay: MTT assay, 3T3 fibroblast cell proliferation; format: cell-based; details: 48 hours
Method: (§1) FIG. 7 depicts the effect of myrtocomuloacetalone 1 on 3T3 mouse fibrobast cell proliferation by MTT assay. Fibrobast cell line was incubated in the presence of three concentrations (25, 5 and 0.5 μg/mL) of test compounds or without addition of compounds (−ye control) and in presence of cytotoxic drug cyclohexamide (+ control).
(§2) The effect of myrtocomuloacetalone 1 on cell viability was determined in MDBK, CC1, J774 and 3T3 Fibrobast cells and the IC50 for each line was calculated.

MDBK kidney cells = assay: MTT assay, MDBK kidney cell proliferation; format: cell-based; details: 48 hours
Method: as §1, with “5” for “7”, “MDBK kidney” for “3T3 mouse fibrobast”, “MDBK Kidney” for “Fibrobast”, “25,” for “(25,”, “μg/mL” for “μg/mL)”, “(− test” for “(−ye”
as §2

CC1 liver cells = assay: MTT assay, CC1 liver cell proliferation; format: cell-based, Wistar rat; details: 48 hours
Method: FIG. 6 depicts the effect of myrtocomuloacetalone 1 on Wistar rat CC1 liver cell proliferation by MTT assay. CC1 liver cellline was incubated in the presence of three concentrations 25, 5 and 0.5 μg/mL of test compounds or without addition of compounds (−ve control) and in the presence of cytotoxic drug cyclohexamide (+ control).
as §2

[2] = test system: basal Nitric Oxide, U138MG cells; assay: Basal level of Nitric Oxide in neuronal cells (griess reagent); format: cell-based; details: 48 hours
Method: FIG. 1 depicts the effect of myrtocomuloacetalone 1 on basal level of Nitric Oxide neuronal cells. U138MG cells were incubated in presence and absence of compound for 48 hours and supernatant was analyzed for the level of the presence of nitrite by griess reagent.
Under normal physiological conditions, Nitric Oxide is necessary for normal vascular function because of its effect as a neurotransmitter. This kind of Nitric Oxide is called a basal level of Nitric Oxide, which is released by neuronal and endothelial synthases (Hattori, Kasai, and Gross 2004). The test compound […] in the basal level of Nitric Oxide released by the neuronal cell (FIG. 1).

[3] = test system: NF kappa B p65 in J774 cells; assay: LPS induced nuclear translocation of p65 subunit of NF kappa B; format: cell-based, mouse
Method: FIG. 3 depicts the LPS induced nuclear translocation of p65 subunit of NF kappa B in J774 cells. Effect of myrtocomuloacetalone 1 at concentration 25 μg/mL. Arrows show no transcription factor inside nucleus at 25 μg/mL, whereas 5, 0.5 μg/mL has no effect on nuclear factor translocation as compared to positive control. The cells were examined at 20× magnification under TRITC and DAPI channel using a Nikon TE-2000 epifluorescence microscope. Merging was done using Adobe Photoshop.

p38 = assay: LPS activated transcription factor p38; format: cell-based
J774.2 macrophages = assay: MTT assay, J774.2 macrophage cell proliferation; format: cell-based, mouse; details: 48 hours
Method: FIG. 8 depicts the effect of myrtocomuloacetalone 1 on J774.2 mouse macrophage cell proliferation by MIT assay. Macrophage cell line was incubated in the presence of three concentrations (25, 5 and 0.5 μg/mL) of test compounds or without addition of compounds (−ve control).
as §2

[4] = test system: intracellular ROS in J774.2 cells; assay: Intracellular oxidative stress, DCFH dye, fluorescent microscopy; format: cell-based, mouse; details: PMA stimulant
Excerpt: FIG. 4 depicts the intracellular oxidative stress examined by fluorescent microscopy. Mouse macrophage J774.2 cells, treated with phorbol myristate acetate (PMA) alone: positive control or in combination with compound. The cells were examined at 20× magnification under a green channel. Bright field images showing the total number of cells present in the same field were obtained under phase contrast at 20× magnification. Each image is representative of 3 individual experiments.
In order to validate the above mentioned results, we also investigated the effect of compound on intracellular ROS levels by using 2′,7′-dichlorfluorescein (DCFH) dye, which mainly measures the H2O2 released into the intracellular environment. We employed PMA as a stimulant since PMA is known to activate the NADPH oxidase via protein kinase C pathway.

[5] = test system: Nitric Oxide release by J774.2 macrophages; assay: LPS-induced inflammatory Nitric Oxide release by macrophages (griess reagent); format: cell-based, mouse; details: J774.2, LPS, 48 hours
Method: FIG. 2 depicts the effect of myrtocomuloacetalone 1 on inflammatory Nitric Oxide release by macrophages in response to LPS, macrophages. J774.2 cells were incubated in the presence or absence of compound for 48 hours and supernatant was detected for the presence of nitrite by griess reagent. The result was compared with known inhibitor of Nitric Oxide; LNMA (NG Monomethyl L arginine).
During inflammation, the inducible form of nitric oxide synthase gets activated and causes the robust generation of Nitric Oxide that causes excessive vasodilation which results in hypotension and septic shock. In contrast, Nitric Oxide combined with superoxide (ROS generated during phagocytosis) leads to ONOO generation and eventually reduces the bioavailability of basal Nitric Oxide and therefore normal function of neurotransition will be halted. This effect mainly leads to vasoconstriction, hypertension and atherosclerosis. Current studies reveal that the compound is an inhibitor to the inflammatory Nitric Oxide released by the activated macrophages in cell culture supernatant. It is found to be a highly significant inhibitor Nitric Oxide with an IC50 value of <1 μg/mL (see FIG. 2).

H2O2 = assay: Oxidative burst, hydrogen peroxide production; format: cell-based

c1ccc([I+]c2ccccc2)cc1 [Diphenyliodonium, reference compound]
Oxidative burst % Inhibition O−2 (superoxide (O−2)): 95%

CC(C)Cc1ccc(C(C)C(=O)O)cc1 (stereo not shown) [Ibuprofen, reference compound]
IC50 (ROS (HOCl); oxidative burst): 11.7 ± 1.8 µg/mL (≈ 56.7 µM)

C[C@]12C=CC(=O)C=C1CC[C@@H]1[C@@H]2[C@@H](O)C[C@@]2(C)[C@H]1CC[C@]2(O)C(=O)CO [Prednisolone, reference compound]
IC50 (T-cells; T-cell): < 0.625 µg/mL

C[C@@H]1C[C@@H]([C@H](O)CC2CC(=O)NC(=O)C2)C(=O)[C@@H](C)C1 [cycoxehamide, reference compound]
Cell viability IC50, 3T3 mouse fibroblasts [1]: 0.13 µg/mL
Cell viability IC50, MDBK kidney cells (MDBK kidney cells): 1.2 ± 0.4 µg/mL
Cell viability IC50, CC1 liver cells (CC1 liver cells): 0.02 ± 0.001 µg/mL

myrtocomuloacetalone 1 [Myrtocomuloacetalone (1)]
T-Cell proliferation (IC50) (T-cells): <0.5 µg/mL
T-Cell proliferation (IC50) (T-cells; listed as myrtocomuloacetalone 1): < 0.5 µg/mL
Cell viability IC50, 3T3 mouse fibroblasts [1]: 6.53 ± 1.2 µg/mL
Cell viability IC50, MDBK kidney cells (MDBK kidney cells): 4.5 ± 1.1 µg/mL
Effect on basal level of Nitric Oxide released by neuronal cell [2]: does change
Nuclear translocation of NF κB ([3]; 25 μg/mL): completely inhibits
Nuclear translocation of NF κB ([3]; 5, 0.5 μg/mL): no effect
Cell viability IC50, CC1 liver cells (CC1 liver cells): 4.6 ± 0.7 µg/mL
Effect on transcription factor p38 activated by LPS (p38): remain unaffected
Oxidative burst % Inhibition O−2 (superoxide (O−2)): 42.5%
Effect on superoxide production (superoxide (O−2); oxidative burst): profound effect
Cell viability IC50, J774.2 macrophages (J774.2 macrophages): 5 ± 0.8 µg/mL
Effect on HOCl production (ROS (HOCl); oxidative burst): no effect
ROS (HOCl) (IC50) (ROS (HOCl); oxidative burst): >100 µg/mL
Zymosan induced ROS production of mainly HOCl (ROS (HOCl); zymosan induced): not
PMA induced intracellular ROS generation [4]: inhibitory effects
Inhibition of inflammatory Nitric Oxide released by activated macrophages, IC50 [5]: < 1 µg/mL
Oxidative burst % Inhibition H2O2 (H2O2; 25 μg/Ml): 53%
Effect on hydrogen peroxide production (H2O2; oxidative burst): profound effect
